Counter-ions that a name gives are not always drawn.
How the values were obtained:
rats (fertility) = test: Reproductive performance and female fertility study in rats; assay type: in vivo, rat
[1] = Oral pharmacokinetics in dogs; assay type: in vivo; details: dog
Text: (§1) There is a marked food effect with absorption reduced by >50% in dogs after a meal.

bacteria = test: Mutagenicity in bacteria; assay type: cell-based
rats [2] = test: Teratogenicity in rats; assay type: in vivo, rat
[3] = system: aquaretic action (V2-receptor antagonism); test: Aquaretic action in normal subjects (Phase 1); assay type: in vivo, human
rats [4] = details: rat, in vivo, 2.5 mg/kg
[5] = Oral pharmacokinetics in rats; assay type: in vivo; details: rat
Text: as §1

bone marrow of rats = test: Clastogenicity in bone marrow of rats; assay type: in vivo, rat
dogs = details: dog, in vivo, 2 mg/kg
[6] = system: AVP-induced pressor response (V1A antagonism); test: Antagonism of AVP-induced pressor response in dogs, intravenous; assay type: in vivo, dog
human subjects = test: Safety in Phase 1 subjects; assay type: in vivo
Text: Other adverse events included flushes, a sensation of cold extremities, abdominal complaints, abnormal stools, syncope, dizziness, palpitations, and postural hypotension. […] These observations were considered related to antagonism of V2 receptors and not a safety concern. Vital signs (blood pressure and heart rate) were unaffected by YM087.

[7] = system: AVP-induced platelet aggregation (V1A antagonist activity); test: AVP-induced platelet aggregation in Phase 1 subjects; assay type: in vivo, human; details: 20 mg/day orally or 2.5 mg IV
bone marrow = test: 2- and 13-week oral toxicity studies in dogs; assay type: in vivo, dog
[8] = system: female rats (estrous cycle, uterine weights); details: 13-week repeated oral dose, all doses
[9] = system: heart failure induced by rapid right ventricular pacing; test: Dogs with heart failure induced by rapid right ventricular pacing; assay type: in vivo, dog; details: intravenous 0.1 mg/kg
[10] = system: AVP-induced dermal vasoconstriction; test: AVP-induced dermal vasoconstriction in Phase 1 subjects; assay type: in vivo, human; details: 50 mg IV
[11] = system: urinary output (V2 antagonism); test: Urinary output and osmolality in conscious dogs, oral; assay type: in vivo, dog
[12] = system: AVP-induced pressor response (V1A antagonism); test: Antagonism of AVP-induced pressor response in rats, oral; assay type: in vivo, rat
rabbits = test: Teratogenicity in rabbits; assay type: in vivo, rabbit
[13] = Human pharmacokinetics (Phase 1)
human lymphocytes = test: Clastogenicity in human lymphocytes in vitro; assay type: cell-based

In the case of `Cc1nc2c([nH]1)-c1ccccc1N(C(=O)c1ccc(NC(=O)c3ccccc3-c3ccccc3)cc1)CC2` [YM087, N-[4-(2-methyl-4,5,6-tetrahydromidazo[4,5-d][1]benzazepin-6-ylcarbonyl)phenyl]biphenyl-2-carboxamide hydrochloride], the female fertility (rats (fertility); female rats, 100 mg/kg orally for 2 weeks prior to mating with untreated males) is reported as “reduced fertility index, increased implantation loss, and decreased live fetuses”, the “reproductive performance of male rats” value (rats (fertility); male rats) is reported as “did not affect” and the “time to peak concentrations” value [1] is reported as 1 h. For the same compound, the mutagenicity (bacteria) was “not mutagenic”, the teratogenicity (rats [2]) was “not teratogenic” and the “duration of increased urine production rate postdosing” value ([3]; IV 50 mg/day) was no more than 6 h. For the same compound, the “duration of increased urine production rate postdosing” value ([3]; IV doses up to 250 μg/kg) was “up to 3 hours”, the “tolerability of aquaretic effects” value ([3]; normal subjects, 120 mg QD or 60 mg BID orally or 50 mg IV) was “considered too uncomfortable in normal subjects to be tolerable” and the “dose at which aquaretic action with decrease in urine osmolarity starts” value ([3]; normal subjects, IV) was 0.05 mg/kg. The “dose at which aquaretic action with decrease in urine osmolarity starts” value ([3]; normal subjects, oral) was 15 mg, the “toxicity in 4-week IV study” value (rats [4]) was “No toxicity was observed” and the “time to peak concentrations” value [5] was 0.5 h. The clastogenicity (bone marrow of rats) was “not clastogenic”, the “toxicity in 4-week IV study” value (dogs) was “No toxicity was observed” and the “ID50 (dose that reduced the AVP response by 50%)” value [6] was 0.026 mg/kg. The “biochemical or hematological laboratory parameters” value (human subjects; Phase 1 subjects) was “No drug-related trend was observed”, the “vital signs (blood pressure and heart rate)” value (human subjects; Phase 1 subjects) was “unaffected” and the overall safety (human subjects; approximately 250 subjects treated) was “no major safety concerns were identified”. For the same compound, the “urinary and plasma osmolarity” value (human subjects; at higher doses, considered related to V2 antagonism) was “urinary osmolarity decreased and plasma osmolarity increased with or without an increase in plasma sodium”, the serious adverse event (human subjects; one patient with severe CHF, 80 mg/day for 4 days, relation to study drug could not be excluded) was “generalized tonic clonic seizure” and the “most frequent adverse events” value (human subjects; regardless of treatment association) was “mild or moderate thirst and mild headache”. The “white blood cell counts” value (human subjects; three subjects who received YM087 (one on placebo)) was “minor, reversible decreases in white blood cell counts”, the AVP-induced platelet aggregation [7] was “Inhibition of AVP-induced platelet aggregation” and the peripheral blood counts (bone marrow; affected dogs, 13-week oral study) was “Decreased peripheral erythrocyte, leukocyte, and/or platelet counts”. For the same compound, the “reversibility of bone marrow and peripheral blood changes” value (bone marrow; dogs) was “reversible”, the uterine weights [8] was “decreased at all doses” and the cardiac function [9] was “significantly improved the depressed cardiac function”. For the same compound, the diuresis [9] was “produced a water diuresis”, the AVP-induced dermal vasoconstriction [10] was “Total inhibition” and the urinary output ([11]; conscious dogs, oral 0.03 to 0.3 mg/kg, dose-related) was “increased urinary output”. For the same compound, the urinary osmolality ([11]; conscious dogs, oral 0.03 to 0.3 mg/kg, reduced from 1500, dose-related) was less than 100 mOsm/kg H2O, the “effect on urinary sodium (Na) or potassium (K) excretion” value ([11]; unlike furosemide, species not given) was “little or no effect” and the “ID50 (dose that reduced the AVP response by 50%)” value [12] was 0.32 mg/kg. For the same compound, the teratogenicity (rabbits) was “not teratogenic”, the “plasma levels after repeated BID oral doses” value ([13]; 60 mg BID oral, after the second dose) was “unexpectedly high plasma levels after the second dose” and the half-life ([13]; plasma) was 4 to 5 h. For the same compound, the bioavailability ([13]; plasma, oral) was 43 to 59%, the Tmax ([13]; plasma, po) was roughly 1 h and the bioavailability ([13]; plasma, po, 60 mg) was 44%. For the same compound, the clastogenicity (human lymphocytes) was “not clastogenic”.
